{
  "source": "paper PMC11637875",
  "about": "“Discovery of novel PARP1/NRP1 dual-targeting inhibitors with strong antitumor potency” (Frontiers in Pharmacology, 2024)",
  "key": {"[1]": {"molecular_target": "LOK (Homo sapiens, UniProt O94804)", "experiment": "Selectivity profile (123 kinase panel)", "type": "biochemical"}, "[2]": {"molecular_target": "CaMK1α (Homo sapiens, UniProt Q14012)", "sequence (Q14012 whole entry)": "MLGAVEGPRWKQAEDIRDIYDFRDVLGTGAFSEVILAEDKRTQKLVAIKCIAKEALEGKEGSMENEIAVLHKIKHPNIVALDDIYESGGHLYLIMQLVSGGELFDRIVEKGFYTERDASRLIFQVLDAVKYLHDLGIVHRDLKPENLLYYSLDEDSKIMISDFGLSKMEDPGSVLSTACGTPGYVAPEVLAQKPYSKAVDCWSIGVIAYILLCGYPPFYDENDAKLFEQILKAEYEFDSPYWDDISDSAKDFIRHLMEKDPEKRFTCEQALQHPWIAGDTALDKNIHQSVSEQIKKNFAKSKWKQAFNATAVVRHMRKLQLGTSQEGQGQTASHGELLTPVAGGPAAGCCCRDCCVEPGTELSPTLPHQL", "experiment": "Selectivity profile (123 kinase panel)", "type": "biochemical"}, "[3]": {"molecular_target": "BMX (Homo sapiens, UniProt P51813)", "experiment": "Selectivity profile (123 kinase panel)", "type": "biochemical"}, "[4]": {"molecular_target": "EPHA4 (Homo sapiens, UniProt P54764)", "experiment": "Selectivity profile (123 kinase panel)", "type": "biochemical"}, "[5]": {"molecular_target": "RAD51 (Homo sapiens, UniProt Q06609)", "experiment": "Specificity testing by MST assay", "type": "binding", "protocol": "(§1) All samples were diluted in 1 × PBST. […] Affinity Analysis software."}, "[6]": {"molecular_target": "PARP10 (Homo sapiens, UniProt Q53GL7)", "experiment": "Specificity testing by MST assay", "type": "binding", "protocol": "as §1"}, "[7]": {"molecular_target": "PARP12 (Homo sapiens, UniProt Q9H0J9)", "experiment": "Specificity testing by MST assay", "type": "binding", "protocol": "as §1"}, "[8]": {"molecular_target": "CHEK2 (Homo sapiens, UniProt O96017)", "experiment": "Specificity testing by MST assay", "type": "binding", "protocol": "as §1"}, "[9]": {"molecular_target": "PARP14 (Homo sapiens, UniProt Q460N5)", "experiment": "Specificity testing by MST assay", "type": "binding", "protocol": "as §1"}, "[10]": {"molecular_target": "PARP9 (Homo sapiens, UniProt Q8IXQ6)", "experiment": "Specificity testing by MST assay", "type": "binding", "protocol": "as §1"}, "[11]": {"molecular_target": "PARP8 (Homo sapiens, UniProt Q8N3A8)", "sequence (Q8N3A8 whole entry)": "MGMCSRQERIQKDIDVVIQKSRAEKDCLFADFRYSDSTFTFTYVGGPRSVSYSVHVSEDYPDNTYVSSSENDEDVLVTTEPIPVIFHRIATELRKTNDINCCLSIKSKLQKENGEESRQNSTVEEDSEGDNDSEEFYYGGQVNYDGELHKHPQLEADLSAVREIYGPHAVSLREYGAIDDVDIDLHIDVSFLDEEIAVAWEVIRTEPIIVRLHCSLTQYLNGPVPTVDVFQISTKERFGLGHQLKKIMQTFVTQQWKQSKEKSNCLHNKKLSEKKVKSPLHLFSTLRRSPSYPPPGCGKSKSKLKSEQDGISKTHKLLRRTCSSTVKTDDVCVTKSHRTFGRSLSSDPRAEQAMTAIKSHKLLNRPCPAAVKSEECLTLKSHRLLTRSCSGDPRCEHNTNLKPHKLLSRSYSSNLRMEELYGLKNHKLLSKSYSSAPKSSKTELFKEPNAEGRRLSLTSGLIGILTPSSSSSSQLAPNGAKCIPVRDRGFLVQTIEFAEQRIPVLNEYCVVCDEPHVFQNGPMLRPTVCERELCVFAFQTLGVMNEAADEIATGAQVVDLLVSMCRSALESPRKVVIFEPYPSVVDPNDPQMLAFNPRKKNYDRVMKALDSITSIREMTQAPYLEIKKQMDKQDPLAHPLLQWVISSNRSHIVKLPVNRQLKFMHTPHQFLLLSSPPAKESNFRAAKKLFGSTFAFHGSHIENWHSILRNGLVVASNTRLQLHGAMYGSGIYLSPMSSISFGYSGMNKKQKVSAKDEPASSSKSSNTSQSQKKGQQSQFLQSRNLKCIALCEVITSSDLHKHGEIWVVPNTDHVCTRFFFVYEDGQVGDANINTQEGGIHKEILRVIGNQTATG", "experiment": "Specificity testing by MST assay", "type": "binding", "protocol": "as §1"}, "[12]": {"molecular_target": "PARP13 (Homo sapiens, UniProt Q7Z2W4)", "experiment": "Specificity testing by MST assay", "type": "binding", "protocol": "as §1"}, "[13]": {"molecular_target": "PARP2 (Homo sapiens, UniProt Q9UGN5)", "experiment": "Specificity testing by MST assay", "type": "binding", "protocol": "as §1"}, "[14]": {"molecular_target": "PARP15 (Homo sapiens, UniProt Q460N3)", "experiment": "Specificity testing by MST assay", "type": "binding", "protocol": "as §1"}, "[15]": {"molecular_target": "PARP7 (Homo sapiens, UniProt Q7Z3E1)", "experiment": "Specificity testing by MST assay", "type": "binding", "protocol": "as §1"}, "[16]": {"molecular_target": "PARP3 (Homo sapiens, UniProt Q9Y6F1)", "sequence (Q9Y6F1 whole entry)": "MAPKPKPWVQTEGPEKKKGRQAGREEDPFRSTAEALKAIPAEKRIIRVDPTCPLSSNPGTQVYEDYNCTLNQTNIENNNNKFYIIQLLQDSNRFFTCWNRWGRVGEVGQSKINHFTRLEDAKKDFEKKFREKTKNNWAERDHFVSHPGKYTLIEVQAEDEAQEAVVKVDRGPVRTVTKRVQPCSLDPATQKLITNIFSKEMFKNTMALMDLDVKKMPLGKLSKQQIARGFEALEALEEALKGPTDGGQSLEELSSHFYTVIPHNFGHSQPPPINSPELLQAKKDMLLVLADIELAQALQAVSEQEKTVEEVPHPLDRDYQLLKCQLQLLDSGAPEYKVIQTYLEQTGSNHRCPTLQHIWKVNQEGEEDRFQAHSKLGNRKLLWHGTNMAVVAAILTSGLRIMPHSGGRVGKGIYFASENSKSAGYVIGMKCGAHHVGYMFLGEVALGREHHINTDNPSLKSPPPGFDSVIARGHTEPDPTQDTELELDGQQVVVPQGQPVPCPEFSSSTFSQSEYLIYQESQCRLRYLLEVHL", "experiment": "Specificity testing by MST assay", "type": "binding", "protocol": "as §1"}, "[17]": {"molecular_target": "NRP2 (Homo sapiens, UniProt O60462)", "experiment": "Specificity testing by MST assay", "type": "binding", "protocol": "as §1"}, "[18]": {"molecular_target": "ATR (Homo sapiens, UniProt Q13535)", "experiment": "Specificity testing by MST assay", "type": "binding", "protocol": "as §1"}, "[19]": {"molecular_target": "AMPKα1/β1/γ1 (Homo sapiens, UniProt P54619+Q13131+Q9Y478)", "experiment": "Selectivity profile (123 kinase panel)", "type": "biochemical"}, "[20]": {"molecular_target": "MST3 (Homo sapiens, UniProt Q9Y6E0)", "sequence (Q9Y6E0 whole entry)": "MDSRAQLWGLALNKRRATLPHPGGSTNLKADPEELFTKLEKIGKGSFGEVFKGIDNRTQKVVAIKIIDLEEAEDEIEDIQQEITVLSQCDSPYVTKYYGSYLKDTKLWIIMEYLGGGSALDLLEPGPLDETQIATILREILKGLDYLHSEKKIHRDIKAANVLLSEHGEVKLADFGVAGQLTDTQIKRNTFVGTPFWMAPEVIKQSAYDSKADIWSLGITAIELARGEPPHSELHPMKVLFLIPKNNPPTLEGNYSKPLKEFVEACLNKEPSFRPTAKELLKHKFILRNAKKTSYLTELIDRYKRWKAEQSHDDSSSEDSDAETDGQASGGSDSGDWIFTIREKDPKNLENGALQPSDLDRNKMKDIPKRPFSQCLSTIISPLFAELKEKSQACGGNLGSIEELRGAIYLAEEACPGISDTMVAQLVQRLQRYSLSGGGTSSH", "experiment": "Selectivity profile (123 kinase panel)", "type": "biochemical"}, "[21]": {"molecular_target": "DYRK1B (Homo sapiens, UniProt Q9Y463)", "experiment": "Selectivity profile (123 kinase panel)", "type": "biochemical"}, "[22]": {"molecular_target": "GSK3β (Homo sapiens, UniProt P49841)", "sequence (P49841 whole entry)": "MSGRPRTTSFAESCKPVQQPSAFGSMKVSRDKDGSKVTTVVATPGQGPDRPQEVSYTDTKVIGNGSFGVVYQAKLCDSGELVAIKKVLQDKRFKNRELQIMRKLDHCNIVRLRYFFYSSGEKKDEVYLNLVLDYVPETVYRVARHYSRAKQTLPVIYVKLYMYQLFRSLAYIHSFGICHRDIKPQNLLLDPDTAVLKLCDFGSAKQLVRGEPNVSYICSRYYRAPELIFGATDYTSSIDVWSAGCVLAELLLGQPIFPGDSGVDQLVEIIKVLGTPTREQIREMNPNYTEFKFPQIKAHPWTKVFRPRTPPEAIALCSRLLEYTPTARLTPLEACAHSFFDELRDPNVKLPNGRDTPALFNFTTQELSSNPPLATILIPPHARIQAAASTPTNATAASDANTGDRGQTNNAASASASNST", "experiment": "Selectivity profile (123 kinase panel)", "type": "biochemical"}, "[23]": {"molecular_target": "EPHB4 (Homo sapiens, UniProt P54760)", "experiment": "Selectivity profile (123 kinase panel)", "type": "biochemical"}, "[24]": {"molecular_target": "GLK (Homo sapiens, UniProt Q8IVH8)", "experiment": "Selectivity profile (123 kinase panel)", "type": "biochemical"}, "[25]": {"molecular_target": "CSF1R (Homo sapiens, UniProt P07333)", "experiment": "Selectivity profile (123 kinase panel)", "type": "biochemical"}, "[26]": {"molecular_target": "BLK (Homo sapiens, UniProt P51451)", "experiment": "Selectivity profile (123 kinase panel)", "type": "biochemical"}, "[27]": {"molecular_target": "T1, NRP1 (Homo sapiens, UniProt O14786)", "T1 construct": "purchased Abcam", "T1 sequence (O14786 22-644 isoform O14786-2 limits assumed)": "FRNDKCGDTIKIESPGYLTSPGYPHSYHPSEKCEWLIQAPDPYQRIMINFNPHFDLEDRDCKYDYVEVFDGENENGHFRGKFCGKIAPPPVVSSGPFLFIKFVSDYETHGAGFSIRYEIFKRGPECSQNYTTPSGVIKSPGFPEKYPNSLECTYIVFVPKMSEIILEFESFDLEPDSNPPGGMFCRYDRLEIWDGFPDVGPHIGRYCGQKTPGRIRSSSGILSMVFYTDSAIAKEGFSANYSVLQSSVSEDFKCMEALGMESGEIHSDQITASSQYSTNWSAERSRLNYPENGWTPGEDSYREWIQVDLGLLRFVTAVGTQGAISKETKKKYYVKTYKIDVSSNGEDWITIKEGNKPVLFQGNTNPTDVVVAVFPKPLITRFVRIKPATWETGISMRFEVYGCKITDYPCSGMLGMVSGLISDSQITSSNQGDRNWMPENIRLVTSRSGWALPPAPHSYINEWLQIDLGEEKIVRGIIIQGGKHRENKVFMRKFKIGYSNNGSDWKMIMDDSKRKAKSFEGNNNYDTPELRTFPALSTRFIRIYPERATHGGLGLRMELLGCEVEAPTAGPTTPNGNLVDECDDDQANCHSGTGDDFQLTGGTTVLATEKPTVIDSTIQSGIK", "experiment": "Microscale thermophoresis (MST) assay", "type": "binding", "conditions": "labeled protein 50 nM, read-out: NRP1 (K d)", "protocol": "as §1"}, "[28]": {"molecular_target": "T2, PARP1 (Homo sapiens, UniProt P09874)", "T2 construct": "purchased Abcam", "experiment": "Microscale thermophoresis (MST) assay", "type": "binding", "conditions": "labeled protein 50 nM, read-out: PARP1 (K d)", "protocol": "as §1"}, "[29]": {"molecular_target": "CHK2 (Homo sapiens, UniProt O96017)", "experiment": "Selectivity profile (123 kinase panel)", "type": "biochemical"}, "[30]": {"molecular_target": "MLK1 (Homo sapiens, UniProt P80192)", "experiment": "Selectivity profile (123 kinase panel)", "type": "biochemical"}, "[31]": {"molecular_target": "MINK (Homo sapiens, UniProt Q8N4C8)", "sequence (Q8N4C8 whole entry)": "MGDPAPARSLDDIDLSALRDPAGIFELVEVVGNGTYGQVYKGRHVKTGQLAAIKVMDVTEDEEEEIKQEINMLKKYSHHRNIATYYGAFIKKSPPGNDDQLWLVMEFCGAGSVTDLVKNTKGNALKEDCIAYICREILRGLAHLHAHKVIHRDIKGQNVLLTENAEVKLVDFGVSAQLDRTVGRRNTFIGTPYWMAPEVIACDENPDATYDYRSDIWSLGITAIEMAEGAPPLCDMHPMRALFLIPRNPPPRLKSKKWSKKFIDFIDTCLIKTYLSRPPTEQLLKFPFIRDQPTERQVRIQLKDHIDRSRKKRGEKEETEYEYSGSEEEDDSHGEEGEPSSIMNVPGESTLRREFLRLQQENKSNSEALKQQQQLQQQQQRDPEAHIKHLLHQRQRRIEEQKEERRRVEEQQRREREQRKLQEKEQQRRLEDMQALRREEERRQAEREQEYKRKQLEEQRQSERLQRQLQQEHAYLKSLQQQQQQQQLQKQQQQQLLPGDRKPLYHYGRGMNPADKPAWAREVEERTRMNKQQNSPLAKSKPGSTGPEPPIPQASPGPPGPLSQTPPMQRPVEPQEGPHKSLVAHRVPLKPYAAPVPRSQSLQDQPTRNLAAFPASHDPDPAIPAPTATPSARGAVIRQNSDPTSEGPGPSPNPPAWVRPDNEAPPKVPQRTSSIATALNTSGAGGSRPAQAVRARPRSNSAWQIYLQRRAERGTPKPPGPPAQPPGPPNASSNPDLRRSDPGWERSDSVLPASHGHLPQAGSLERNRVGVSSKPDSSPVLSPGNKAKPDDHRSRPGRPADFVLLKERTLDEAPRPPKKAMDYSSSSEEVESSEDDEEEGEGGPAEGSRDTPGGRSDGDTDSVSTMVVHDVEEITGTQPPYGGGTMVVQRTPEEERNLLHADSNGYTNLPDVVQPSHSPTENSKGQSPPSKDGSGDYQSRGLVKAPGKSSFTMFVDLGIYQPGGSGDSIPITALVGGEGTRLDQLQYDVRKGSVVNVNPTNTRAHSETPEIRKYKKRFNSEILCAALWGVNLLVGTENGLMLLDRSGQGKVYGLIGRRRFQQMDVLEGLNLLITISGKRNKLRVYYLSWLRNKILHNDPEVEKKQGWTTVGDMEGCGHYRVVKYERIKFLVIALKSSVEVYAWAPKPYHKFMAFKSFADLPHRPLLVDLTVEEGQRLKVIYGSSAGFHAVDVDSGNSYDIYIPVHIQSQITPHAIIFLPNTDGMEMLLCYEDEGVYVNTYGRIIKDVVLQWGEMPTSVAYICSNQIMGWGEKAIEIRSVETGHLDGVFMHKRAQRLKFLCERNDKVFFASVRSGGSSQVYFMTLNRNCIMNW", "experiment": "Selectivity profile (123 kinase panel)", "type": "biochemical"}, "[32]": {"molecular_target": "FER (Homo sapiens, UniProt P16591)", "experiment": "Selectivity profile (123 kinase panel)", "type": "biochemical"}, "[33]": {"molecular_target": "ALK6 (Homo sapiens, UniProt O00238)", "sequence (O00238 14-502)": "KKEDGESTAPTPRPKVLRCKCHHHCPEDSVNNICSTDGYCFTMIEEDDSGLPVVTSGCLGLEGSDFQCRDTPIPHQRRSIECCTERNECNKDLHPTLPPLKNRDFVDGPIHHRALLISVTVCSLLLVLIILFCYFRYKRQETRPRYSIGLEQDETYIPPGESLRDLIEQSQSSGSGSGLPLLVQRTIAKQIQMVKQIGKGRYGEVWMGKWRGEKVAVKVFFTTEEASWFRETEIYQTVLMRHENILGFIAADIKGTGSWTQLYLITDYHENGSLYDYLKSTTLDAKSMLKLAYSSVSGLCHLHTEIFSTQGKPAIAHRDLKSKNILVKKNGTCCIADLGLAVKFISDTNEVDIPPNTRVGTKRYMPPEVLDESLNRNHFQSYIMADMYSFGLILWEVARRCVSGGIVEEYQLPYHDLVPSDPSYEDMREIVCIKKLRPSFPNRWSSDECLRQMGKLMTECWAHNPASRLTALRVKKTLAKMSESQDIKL", "experiment": "Selectivity profile (123 kinase panel)", "type": "biochemical"}, "[34]": {"molecular_target": "EPHA1 (Homo sapiens, UniProt P21709)", "experiment": "Selectivity profile (123 kinase panel)", "type": "biochemical"}, "[35]": {"molecular_target": "CK1ε (Homo sapiens, UniProt P49674)", "sequence (P49674 whole entry)": "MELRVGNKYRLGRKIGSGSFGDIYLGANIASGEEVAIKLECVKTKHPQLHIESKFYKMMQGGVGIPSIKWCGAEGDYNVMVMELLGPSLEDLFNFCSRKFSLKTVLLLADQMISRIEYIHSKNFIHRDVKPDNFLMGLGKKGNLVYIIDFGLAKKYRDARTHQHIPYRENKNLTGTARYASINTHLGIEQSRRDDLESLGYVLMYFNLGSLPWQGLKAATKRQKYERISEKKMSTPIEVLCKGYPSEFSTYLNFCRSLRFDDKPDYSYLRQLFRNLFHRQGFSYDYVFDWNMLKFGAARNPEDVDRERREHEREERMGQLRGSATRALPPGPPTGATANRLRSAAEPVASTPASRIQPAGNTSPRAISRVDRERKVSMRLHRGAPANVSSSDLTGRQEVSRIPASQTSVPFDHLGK", "experiment": "Selectivity profile (123 kinase panel)", "type": "biochemical"}},
  "data": [
    {"smiles": "NC(N)=NCCC[C@H](NCN1CCN(C(=O)c2cc(Cc3n[nH]c(=O)c4ccccc34)ccc2F)CC1)C(=O)O", "note": "[PPNR-4]", "values": [
      {"measurement": "IC50", "setting": "[1]", "value": "> 10", "unit": "µM"},
      {"measurement": "IC50", "setting": "[2]", "value": "> 10", "unit": "µM"},
      {"measurement": "IC50", "setting": "[3]", "value": "> 10", "unit": "µM"},
      {"measurement": "IC50", "setting": "[4]", "value": "> 10", "unit": "µM"},
      {"measurement": "Kd", "setting": "[5]", "value": "> 10", "unit": "µM"},
      {"measurement": "Kd", "setting": "[6]", "value": "> 10", "unit": "µM"},
      {"measurement": "Kd", "setting": "[7]", "value": "> 10", "unit": "µM"},
      {"measurement": "Kd", "setting": "[8]", "value": "> 10", "unit": "µM"},
      {"measurement": "Kd", "setting": "[9]", "value": "> 10", "unit": "µM"},
      {"measurement": "Kd", "setting": "[10]", "value": "> 10", "unit": "µM"},
      {"measurement": "Kd", "setting": "[11]", "value": "> 10", "unit": "µM"},
      {"measurement": "Kd", "setting": "[12]", "value": "> 10", "unit": "µM"},
      {"measurement": "Kd", "setting": "[13]", "value": "> 10", "unit": "µM"},
      {"measurement": "Kd", "setting": "[14]", "value": "> 10", "unit": "µM"},
      {"measurement": "Kd", "setting": "[15]", "value": "> 10", "unit": "µM"},
      {"measurement": "Kd", "setting": "[16]", "value": "> 10", "unit": "µM"},
      {"measurement": "Kd", "setting": "[17]", "value": "> 10", "unit": "µM"},
      {"measurement": "Kd", "setting": "[18]", "value": "> 10", "unit": "µM"},
      {"measurement": "IC50", "setting": "[19]", "value": "> 10", "unit": "µM"},
      {"measurement": "IC50", "setting": "[20]", "value": "> 10", "unit": "µM"},
      {"measurement": "IC50", "setting": "[21]", "value": "> 10", "unit": "µM"},
      {"measurement": "IC50", "setting": "[22]", "value": "> 10", "unit": "µM"},
      {"measurement": "IC50", "setting": "[23]", "value": "> 10", "unit": "µM"},
      {"measurement": "IC50", "setting": "[24]", "value": "> 10", "unit": "µM"},
      {"measurement": "IC50", "setting": "[25]", "value": "> 10", "unit": "µM"},
      {"measurement": "IC50", "setting": "[26]", "value": "> 10", "unit": "µM"},
      {"measurement": "Kd", "setting": "[27]", "value": 0.0166, "unit": "µM"},
      {"measurement": "Kd", "setting": "[28]", "value": 0.00715, "unit": "µM"},
      {"measurement": "IC50", "setting": "[29]", "value": "> 10", "unit": "µM"},
      {"measurement": "IC50", "setting": "[30]", "value": "> 10", "unit": "µM"},
      {"measurement": "IC50", "setting": "[31]", "value": "> 10", "unit": "µM"},
      {"measurement": "IC50", "setting": "[32]", "value": "> 10", "unit": "µM"},
      {"measurement": "IC50", "setting": "[33]", "value": "> 10", "unit": "µM"},
      {"measurement": "IC50", "setting": "[34]", "value": "> 10", "unit": "µM"},
      {"measurement": "IC50", "setting": "[35]", "value": "> 10", "unit": "µM"}
    ]}
  ]
}
